Test results reported in US12303572B2 (Duke University, priority 2015, dated 2025).

Experiments:
[1] = In vitro (phantom) quantitative T2 mapping at 7T, spin-spin relaxation contrast
Method: Data are provided from quantitative T2 mapping at 7T using a RARE FSE protocol with at least 6 different echo times, at solute concentrations of 10 and 20 mM.

[2] = Ascorbate T2 enhancement in rodent model of neocortical spreading depression; type: in vivo; details: slices 3 and 4 mm anterior to bregma, KCl-induced SD in right hemisphere
Description: FIG. 10. […] The craniectomy site is 1 mm posterior to bregma, a skull landmark representing the posterior third of the underlying brain. The above two rows show T2 images and quantitative color lute T2 maps of signal change in rodent brain that are 3 and 4 mm anterior to bregma, that is, distant from the SD induction site. […] These marked cortical signal changes are consistent with the known hypermetabolic activity that occurs with SD, as also observed with ^18F-FDG PET, and with direct microdialysis and metabolomic determinations.
Spreading depression (SD) is an experimentally reproducible pathophysiological phenomenon of CNS tissues originally described 60 years ago by Loao. After a focal region of cortex reaches a critical threshold of ionic perturbation, a massive spreading wave of cellular depolarization may begin and spread through gray matter tissue, but remain confined to the gray matter zone in which it was induced, not crossing white matter pathways. […]
The craniectomy site is 1 mm posterior to bregma, a skull landmark representing the posterior third of the underlying brain. The above two rows show T2 images and quantitiative color lute T2 maps of signal change in rodent brain that are 3 and 4 mm anterior to bregma, that is, distant from the SD induction site. […]

[3] = Perfusion and viability cardiac imaging with parenteral ascorbate at 7T; type: in vivo; details: initial i.v. bolus, rat heart
Method: FIGS. 11A-11B. Perfusion and viability cardiac imaging with parenteral ascorbate. FIG. 11A depicts the two primary imaging planes, coronal and axial, for rat heart imaging at 7T.
Perfusion and viability cardiac imaging with parenteral ascorbate was assessed. FIG. 11A, depicts the two primary imaging planes, coronal and axial, for rat heart imaging at 7T. Retrospective gating with respiratory coupling was employed to collect images at 7T. The acquisition sequence is moderately T2-weighted and can be further optimized to enhance the contrast effect.

[4] = T2 contrast changes in guinea pig brain at 7T after i.v. ascorbate formulations; type: in vivo, guinea pigs; details: 2 g/kg over 60 min slow infusion
[5] = oral, even at doses more than 100 times the recommended daily allowance; cited from earlier work
[6] = physiological pH of 7.4; cited from earlier work

Compound	change in T2 relaxation ([1]; 10 mM ascorbate with physiological glucose (5 mM) or HCO3- (25 mM), pH 7.0)	pH at which the T2 effect is maximized ([1]; phantoms, FIG. 3C)	lowest concentration with statistically significant negative T2 contrast (signal loss) ([1]; vs control (phosphate-buffered saline), conventional FSE acquisition)	effect of H2O2 on ascorbate T2 enhancement ([1]; μM H2O2, phantoms, FIG. 3B)	T2 signal change in cerebral cortex [2]	T2 signal intensity in left ventricle [3]	FSE T2 images before and after infusion [4]	plasma concentration [5]	fraction present as mono anion [6]	T2 contrast effect (T2 relaxation in ms) relative to meglumine or ascorbate alone ([1]; 10 mM, water, neutral pH, FIG. 3D)
O=C1O[C@H]([C@@H](O)CO)C(O)=C1O [ascorbate, L-ascorbic acid]	50%	7.0-7.4	1 to 5 mM	marked synergism	clear T2 asymmetry in the right cerebral cortex as compared to the left	transient decrease in T2 signal intensity throughout the left ventricle	dramatic signal intensity differences throughout the brain parenchyma	≤ 200 µM	99%	–
meglumine ascorbate	–	–	–	–	–	–	–	–	–	approximately 4 times
